These results are taken from patent US20230390183A1, “METHOD FOR IMPROVING SKIN CONDITION BY CRASSOCEPHALUM RABENS EXTRACT” (Greenyn Biotechnology Co., Ltd, priority 2022, published 2023).

The assay has as its system skin (moisture, wrinkle, collagen density). The assay is described as follows: Comparison of different functional components for skin-improving efficacy. It is filed as in vivo, human. An excerpt:
In addition to the Crassocephalum rabens extract of the present invention, some other commercially available materials were collected, including oral hyaluronic acid (for continuous use of 20 days), ceramide, and collagen (for continuous use of 6 weeks), to compare their effects in maintaining skin hydrated, reducing wrinkles, and increasing collagen.

For collagen, for the setting “continuous use of 6 weeks”, the “Moisture (%)” value is reported as “+25.5%” and the “Wrinkle (%)” value is given as “No significant”.

On to hyaluronic acid [Oral hyaluronic acid], for which, where the note is “continuous use of 20 days”, the “Moisture (%)” value is reported as “+21.5%” and the “Wrinkle (%)” value is on record as −12.5%.

Turning to ceramide, for the setting “no duration of use printed”, the “Moisture (%)” value is recorded as “+2.7%” and the “Wrinkle (%)” value is −5.8%.
